# Source: a melting point compilation (Tetko et al.; mined from patent text by program, amines drawn as free bases though some values may be those of a salt)
row,Structure (SMILES),melting point [°C]
1,NC(=O)c1cn2c(nc1=O)CCC2,277 to 278
2,C[C@]1(COc2ccc(N3CCN(C(=O)NCc4ccc(OC(F)(F)F)cc4)CC3)cc2)Cn2cc([N+](=O)[O-])nc2O1,166 to 168
3,N#CN1C2CCC1CC(c1n[nH]c3ccccc13)C2 (stereo unspecified),201 to 202
4,COc1ccc2nc(C3(OC)C=CC(=NS(=O)(=O)c4ccc(C)cc4)C=C3)sc2c1 (stereo unspecified),166 to 168
5,N#CC1=C(C#N)Sc2nc3ccccc3nc2S1,> 300
6,COc1cc(C(=O)NS(=O)(=O)c2ccccc2C)ccc1Cc1cn(C(=O)NC(c2ccccc2)c2ccccc2)c2ccc(NC(=O)OC3CCCC3)cc12,253 to 254
7,CCCCCCCCNC(=O)N(CCCCCSc1nc(-c2ccccc2)c(-c2ccccc2)[nH]1)c1ccccc1,74 to 76
8,Cc1nccn1-c1cccc(C2=Nc3cc(O)c(-c4ccc(F)cc4)cc3NC(=O)C2)c1,260
9,CCCCNS(=O)(=O)CC(O)C(O)C(CC1CCCCC1)NC(=O)c1cccnc1 (stereo unspecified),61 to 64
10,CC(=O)OCC(=O)C1CCC2C3CCC4CC(O)C(N5CCOC(C)(C)C5)CC4(C)C3C(=O)CC12C (stereo unspecified),158 to 160
11,O=C(O)/C=C/c1ccn(C2CCCCCC2)c1,138 to 140
12,O=c1c(N2CCN(c3ccncc3)CC2)cn(Cc2ccccc2)c2cc(O)ccc12,141 to 146
13,OCC(CO)OCn1c(Cl)nc2c(Cl)c(Cl)c(Cl)c(Cl)c21,155
14,CC(=O)c1ccc(-n2c(CCl)nc3ccccc3c2=O)cc1,180 to 181
15,CCOC(=O)c1ccc(CCN2CC=C(c3c[nH]c(-c4ccc(F)cc4)c3-c3ccncc3)CC2)cc1,217 to 218
16,CC1Oc2ccccc2CC1NNc1ncnc2c1ncn2C1OC(CO)C(O)C1O (stereo unspecified),90 to 92
17,Cc1ccc2cccc(N(Cc3c(Cl)ccc([N+](=O)[O-])c3Cl)C(=O)OC(C)(C)C)c2n1,130 to 131
18,CCCCCCNC(=O)C(CCC(=O)O)NC(=O)C(NC(=O)OC(C)(C)C)C(C)C (stereo unspecified),63 to 65
19,Cc1ccc(C2C(=O)Oc3c2cc(C(C)(C)C)cc3C(C)(C)C)cc1C (stereo unspecified),130 to 132
20,Cc1nc(CO)n(COCc2ccccc2)c1Sc1ccccc1,87 to 88
21,COc1cccc2c1C[C@H]1C[C@@H](CCN3CCN(C(c4ccccc4)c4ccccc4)CC3)CN(C)[C@@H]1C2,140 to 148
22,O=S(=O)(c1c[nH]c(Br)c1-c1ccc(Cl)cc1)C(F)(F)F,163 to 165

row,Structure (SMILES),melting point [°C]
1,CCCCCCCCC(O)C(=O)NCCSSCCNC(=O)C(O)CCCCCCCC (stereo unspecified),180 to 183
2,O=C(Cl)N1CCCCCCCCCCCNC1=O,65 to 67
3,O=C(CN1c2nc(-c3ccncc3)cc(=O)n2CCC1c1ccccc1)c1ccc2ccccc2c1 (stereo unspecified),226 to 228
4,O=C(O)c1cnn2c(C(F)(F)F)cc(-c3ccc(C(F)(F)F)cc3)nc12,248
5,Cc1ccc(-c2ccccc2-c2n[nH]c(C(c3ccccc3)(c3ccccc3)c3ccccc3)n2)cc1,120 to 122
6,O=C(Nc1cc(-c2c(-c3ccc(F)cc3)nc3cccnn23)ccn1)c1ccncc1,226 to 227
7,CC1(C)C[C@H]2c3cccc4c3N(CCNC4)[C@H]2C1,155 to 157
8,Nc1cnccc1N1CCc2ccccc21,89
9,O=C(Cc1ccsc1)N[C@H]1C[C@H](C(=O)O)Nc2cc(Cl)cc(Cl)c21 (relative stereo),198 to 200
10,OCc1ccccc1CCCc1cc2c(cc1O)CCO2,110 to 112
11,CC(C)(C)OC(=O)NC(COCc1ccccc1)C(=O)N1CCOCC1 (stereo unspecified),87 to 88
12,COc1cc(C(O)c2cnc3ccccc3c2)ccc1OCc1ccccc1 (stereo unspecified),124 to 125
13,CC(=O)C(O)C1OC(n2cc(Br)c(=O)[nH]c2=O)CC1(O)C(C)=O (stereo unspecified),116 to 120
14,COc1ccccc1Oc1c(Cl)nc(-c2ccoc2)nc1NS(=O)(=O)c1ccc(C(C)(C)C)cc1,> 300
15,O=C(OCc1ccccc1)N1CCN2c3ccc([N+](=O)[O-])cc3OCC2C1 (stereo unspecified),138 to 140
16,CCS(=O)(=O)Nc1ccc(OC(=O)NC)cc1C,146 to 148
17,COc1ccc(CCN(C)CCCCc2ccc(NC(=O)c3cccc4c(=O)c5cccc(OC)c5[nH]c34)cc2)cc1,182
18,COc1cc(-c2nc3ccc(OCCCN4CCCCC4)cc3n2Cc2ccccc2)cc(OC)c1OC,92
19,CC(C1CC1)N(CCCc1c[nH]c2ccc(F)cc12)C1COc2c(F)ccc(C(N)=O)c2C1 (stereo unspecified),124
20,O=C(O)c1cnn2c(C(F)F)cc(-c3ccc(OC(F)(F)F)cc3)nc12,231
21,CN1C(C)(C)CC(O)C(O)C1(C)C (stereo unspecified),78

# The next lines start with the values.
row,melting point [°C],Structure (SMILES)
1,57 to 62,Cc1noc(NS(=O)(=O)c2ccccc2-c2ccc(C(F)(F)F)cc2)c1C
2,> 300,COc1cc2cc(-c3ccc(=O)[nH]n3)sc2cc1OC
3,170 to 171,COc1ccc(Cc2nc(C#N)c[nH]2)cc1
4,190 to 192,CN(C)CC(=O)N1CCN(Cc2ccc3c(c2)Cc2c(-c4ccsc4)n[nH]c2-3)CC1
5,218 to 220,O=C(COc1ccc(Cl)c(Cl)c1)N1CCC2(CC1)Cn1cc([N+](=O)[O-])nc1O2
6,193 to 196,CCCCC1(C(=O)N[C@@H](Cc2ccc(NC(=O)c3c(Cl)cccc3Cl)cc2)C(=O)OC)CCCC1
7,152 to 153,COc1ccc(Nc2ccc3cc(O)ccc3c2)cc1
8,152 to 154,CCc1cc(NCc2ccc(-c3ccccc3C#N)cc2)n2ncc(Cl)c2n1
9,118 to 121,Cc1ccc(C(=O)C=CN(C)C)s1
10,211 to 212,CCS(=O)(=O)c1cccnc1S(N)(=O)=O
11,171 to 174,O=CN1CCC(O)(c2ccccc2Cc2ccccc2)CC1
12,203 to 204,Cc1ccnc2[nH]c(C3CC3)nc12
13,123 to 124,CCOC(=O)C1CCc2c([nH]c3ccc(N)cc23)C1 (stereo unspecified)
14,133 to 138,CC(=O)NCc1cc([N+](=O)[O-])ccc1C
15,286 to 290,CCCn1cc2c(C3C(=O)Nc4ccc(Br)cc43)nc(NCCCN(C)C)nc2n1 (stereo unspecified)
16,167 to 172,COc1ccc(Cn2ncnc2CN2C(=O)c3ccccc3C2=O)cc1
17,148,CCCCCCCCOc1ccc2c(c1CCC)OC(CCC(=O)O)(CCC(=O)O)CC2=O
18,94 to 96,CCCn1cc(-c2ccccc2)c(=O)c(-c2ccccc2)n1
19,199 to 200,CC(C)(C)OC(=O)C(C1NC(C(=O)O)C2(CCOCC2)S1)N1C(=O)c2ccccc2C1=O (stereo unspecified)
20,154 to 156,CS(=O)(=O)N(Cc1ccccn1)CC(O)(Cn1cncn1)c1ccc(Cl)cc1Cl (stereo unspecified)
21,166 to 167,CCOC(=O)CNC1=NS(=O)(=O)c2ccccc21
22,175 to 177,O=CNc1cnc2ccccc2c1Cl
23,174,CCn1c(=O)n(CCN2CC[C@H](NC(=O)c3cc(Cl)c(N)c4c3OCC4)[C@H](OC)C2)c2ccccc21 (relative stereo)
24,289 to 291,Cc1cc(C)cc(NC(=O)NCc2ccc3c(c2)CN(C2CCC(=O)NC2=O)C3=O)c1 (stereo unspecified)
25,113 to 115,O=C(c1cncc(Br)c1)N1CCC(c2ccccc2)=N1
26,184 to 185,Cc1oc(-c2ccc(O)cc2)nc1CCOc1ccc(N)cc1
27,148 to 149,CCOC(=O)COc1ccc(N2CCN(S(=O)(=O)c3ncn(C)c3Cl)CC2)cc1

row,melting point [°C],Structure (SMILES)
1,133 to 145,CC(=O)NC(C(=O)NC1c2cc(C#N)ccc2OC(C)(C)C1O)c1ccccc1 (stereo unspecified)
2,113 to 115,COc1ccc(S(=O)(=O)C2(CCCC#Cc3ccc(Cl)cc3)SC(=O)N(C)C2=O)cc1 (stereo unspecified)
3,139 to 140,C#CCN1Cc2cccc3cccc(c23)C1=O
4,219 to 220,CCOC(=O)Nc1nc(=O)c2cnn3c2n1CC=C3c1cccc(C(F)(F)F)c1
5,107 to 112,O=C(Nc1cccc(-c2nnn[nH]2)c1)C(=O)N1CCC(Cc2ccc(F)cc2)CC1
6,42 to 43,CC(C)(C)C(Cl)=NNc1ccc(Cl)cc1
7,263 to 264,CCOC(=O)Nc1cc(C)cc(Nc2c3cccc(C)c3nc3c(C(=O)NCCN(C)C)cccc23)c1
8,194,O=C(Nc1cccc2[nH]ccc12)c1ccc(Cl)cc1OCC1CO1 (stereo unspecified)
9,188 to 194,CCOC1=NS(=O)(=O)c2cc(NC=O)ccc21
10,165 to 167,Cc1cc(N2CCNC(=O)N2)cc(Cl)c1SCc1ccc(Cl)cc1
11,143 to 144,CC(CO)Nc1ccc(-c2cccc(C(F)(F)F)c2)nn1 (stereo unspecified)
12,107 to 109,CCOc1cc(F)ccc1C(=O)c1ccc(OC)c(Cl)c1Cl
13,178 to 180,CC(=O)c1cc2nc(S(=O)Cc3nccc4c3OCO4)[nH]c2cc1C (stereo unspecified)
14,95 to 97.7,O=C(OCc1ccccc1)N1CCOc2c(Br)cc(Cl)cc21
15,169 to 171,COc1ccc(N2C(=O)c3ccc(Cl)cc3C2CC(=O)N2CCN(C)CC2)cc1 (stereo unspecified)
16,138 to 139,Cn1cc(C(=O)c2ccccn2)cc1C(=O)c1ccc(Cl)cc1
17,192,Cc1ccc(C2=C(C#N)C(c3cccc4nonc34)c3c[nH]nc3N2)s1 (stereo unspecified)
18,110 to 112,CCCCNC(=O)Oc1c(C)cc(Oc2ccc(C)cc2)cc1C
19,188,CCCCN1CC(=O)N2[C@@H](c3ccc(NS(C)(=O)=O)cc3)c3[nH]c4ccccc4c3C[C@@H]2C1=O (relative stereo)
20,132 to 133,COc1cc2c(cc1O)CCN(C(=O)c1ccc(OC)c(OC)c1)C2
21,168 to 170,CCc1cccc(C=CC(=O)CCCc2ccccc2)c1NC(=O)CC1c2ccccc2Oc2ccccc21
22,63 to 64,Cc1nc(OCCCC2CO2)cc(-c2ccc(F)cc2)n1 (stereo unspecified)
23,181 to 183,Cc1cc(-c2cccc(C(F)(F)F)c2)nn2cnnc12
24,114 to 116,CC(C)CC(NC(=O)c1ccc(NCc2c[nH]cn2)cc1-c1ccccc1)C(=O)O (stereo unspecified)
25,> 260,CCOC(=O)c1cnc(N2CCN(S(=O)(=O)c3ccc4ccccc4c3)CC2)nc1
26,167 to 169,C#Cc1c(N)cc(-c2ccc(Cl)c(OC)c2F)nc1C(=O)OC
